According to US4868321A, “Isothiocyanate intermediates” (FMC Corporation, priority 1988, dated 1989):

Key:
Type in all cases: in vivo
Field Bindweed [1] = assay: Postemergence Herbicidal Activity, Field Bindweed; conditions: post-emergence; for pest or weed control at 1000 g/ha: 1.0 kg/ha
How it was run: (§1)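 Applications are made pre- or postemergence from 50/50 acetone/water solutions of each compound. Effect is recorded as % C at the stated kg/ha rate.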

Rice [2] = assay: Preemergence Herbicidal Activity, Rice; conditions: Oryza sativa, pre-emergence; for plant injury at 1000 g/ha: 1.0 kg/ha
How it was run: (§2)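 Compounds were applied at rates given in kilograms per hectare, and herbicidal effect was scored as percent control.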

Velvetleaf [3] = assay: Preemergence Herbicidal Activity, Velvetleaf; conditions: Abutilon theophrasti, pre-emergence; for pest or weed control at 1000 g/ha: 1.0 kg/ha
How it was run: as §1

Rice [4] = assay: Postemergence Herbicidal Activity, Rice; conditions: Oryza sativa, post-emergence; for plant injury at 1000 g/ha: 1.0 kg/ha
How it was run: as §2

Wheat [5] = assay: Postemergence Herbicidal Activity, Wheat; conditions: Triticum aestivum, post-emergence; for plant injury at 1000 g/ha: 1.0 kg/ha
How it was run: as §2

Morningglory [6] = assay: Postemergence Herbicidal Activity, Morningglory; conditions: Ipomoea, post-emergence; for pest or weed control at 1000 g/ha: 1.0 kg/ha
How it was run: as §1

Green Foxtail [7] = assay: Preemergence Herbicidal Activity, Green Foxtail; conditions: Setaria viridis, pre-emergence; for pest or weed control at 1000 g/ha: 1.0 kg/ha
How it was run: (§3)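 Herbicidal response was graded as percent control. Compound rates were in kg/ha.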

Green Foxtail [8] = assay: Postemergence Herbicidal Activity, Green Foxtail; conditions: Setaria viridis, post-emergence; for pest or weed control at 1000 g/ha: 1.0 kg/ha
How it was run: as §3

Wheat [9] = assay: Preemergence Herbicidal Activity, Wheat; conditions: Triticum aestivum, pre-emergence; for plant injury at 1000 g/ha: 1.0 kg/ha
How it was run: as §2

Soybean [10] = assay: Preemergence Herbicidal Activity, Soybean; conditions: Glycine max, pre-emergence; for plant injury at 1000 g/ha: 1.0 kg/ha
How it was run: as §2

Field Corn [11] = assay: Postemergence Herbicidal Activity, Field Corn; conditions: Zea mays, post-emergence; for plant injury at 1000 g/ha: 1.0 kg/ha
How it was run: as §2

broad leaf weeds = assay: preemergence use against broad leaf weeds; conditions: with crops such as corn, rice, wheat and soybeans
Soybean [12] = assay: Postemergence Herbicidal Activity, Soybean; conditions: Glycine max, post-emergence; for plant injury at 1000 g/ha: 1.0 kg/ha
How it was run: as §2

Velvetleaf [13] = assay: Postemergence Herbicidal Activity, Velvetleaf; conditions: Abutilon theophrasti, post-emergence; for pest or weed control at 1000 g/ha: 1.0 kg/ha
How it was run: as §1

Johnsongrass [14] = assay: Preemergence Herbicidal Activity, Johnsongrass; conditions: Sorghum halepense, pre-emergence; for pest or weed control at 1000 g/ha: 1.0 kg/ha
How it was run: as §3

Johnsongrass [15] = assay: Postemergence Herbicidal Activity, Johnsongrass; conditions: Sorghum halepense, post-emergence; for pest or weed control at 1000 g/ha: 1.0 kg/ha
How it was run: as §3

Barnyardgrass [16] = assay: Postemergence Herbicidal Activity, Barnyardgrass; conditions: Echinochloa crus-galli, post-emergence; for pest or weed control at 1000 g/ha: 1.0 kg/ha
How it was run: as §3

Field Corn [17] = assay: Preemergence Herbicidal Activity, Field Corn; conditions: Zea mays, pre-emergence; for plant injury at 1000 g/ha: 1.0 kg/ha
How it was run: as §2

Barnyardgrass [18] = assay: Preemergence Herbicidal Activity, Barnyardgrass; conditions: Echinochloa crus-galli, pre-emergence; for pest or weed control at 1000 g/ha: 1.0 kg/ha
How it was run: as §3

Morningglory [19] = assay: Preemergence Herbicidal Activity, Morningglory; conditions: Ipomoea, pre-emergence; for pest or weed control at 1000 g/ha: 1.0 kg/ha
How it was run: as §1

Cotton [20] = assay: Preemergence Herbicidal Activity, Cotton; conditions: Gossypium hirsutum, pre-emergence; for plant injury at 1000 g/ha: 1.0 kg/ha
How it was run: as §1

Field Bindweed [21] = assay: Preemergence Herbicidal Activity, Field Bindweed; conditions: pre-emergence; for pest or weed control at 1000 g/ha: 1.0 kg/ha
How it was run: as §1

Cotton [22] = assay: Postemergence Herbicidal Activity, Cotton; conditions: Gossypium hirsutum, post-emergence; for plant injury at 1000 g/ha: 1.0 kg/ha
How it was run: as §1

Question: Which pest or weed control at 250 g/ha (Field Bindweed [1]; 0.25 kg/ha) does the source give for `CCS(=O)(=O)Nc1cc(-n2nnn(CCCF)c2=O)c(F)cc1Br` [Compound 34, 1-[4-Bromo-2-fluoro-5-(N--ethylsulfonylamino)phenyl]-4,5-dihydro-] here?
Answer: 100%

Question: And the plant injury at 250 g/ha (Rice [2]; 0.25 kg/ha)?
Answer: 60%

Question: And the pest or weed control at 250 g/ha (Velvetleaf [3]; 0.25 kg/ha)?
Answer: 100%

Question: And the plant injury at 250 g/ha (Rice [4]; 0.25 kg/ha)?
Answer: 70%

Question: What about the plant injury at 250 g/ha (Wheat [5]; 0.25 kg/ha) of the same compound?
Answer: 40%

Question: What about the pest or weed control at 250 g/ha (Morningglory [6]; 0.25 kg/ha) of the same compound?
Answer: 100%

Question: And the pest or weed control at 250 g/ha (Green Foxtail [7]; 0.25 kg/ha)?
Answer: 70%

Question: And the pest or weed control at 250 g/ha (Green Foxtail [8]; 0.25 kg/ha)?
Answer: 90%

Question: And the plant injury at 250 g/ha (Wheat [9]; 0.25 kg/ha)?
Answer: 0%

Question: What about the plant injury at 250 g/ha (Soybean [10]; 0.25 kg/ha) of the same compound?
Answer: 20%

Question: What about the plant injury at 250 g/ha (Field Corn [11]; 0.25 kg/ha) of the same compound?
Answer: 40%

Question: And the “usefulness preemergently against broad leaf weeds” value (broad leaf weeds)?
Answer: particularly useful

Question: And the plant injury at 250 g/ha (Soybean [12]; 0.25 kg/ha)?
Answer: 70%

Question: And the pest or weed control at 250 g/ha (Velvetleaf [13]; 0.25 kg/ha)?
Answer: 100%

Question: What about the pest or weed control at 250 g/ha (Johnsongrass [14]; 0.25 kg/ha) of the same compound?
Answer: 50%

Question: What about the pest or weed control at 250 g/ha (Johnsongrass [15]; 0.25 kg/ha) of the same compound?
Answer: 50%

Question: And the pest or weed control at 250 g/ha (Barnyardgrass [16]; 0.25 kg/ha)?
Answer: 70%

Question: What about the plant injury at 250 g/ha (Field Corn [17]; 0.25 kg/ha) of the same compound?
Answer: 60%

Question: And the pest or weed control at 250 g/ha (Barnyardgrass [18]; 0.25 kg/ha)?
Answer: 95%

Question: And the pest or weed control at 250 g/ha (Morningglory [19]; 0.25 kg/ha)?
Answer: 100%

Question: What about the plant injury at 250 g/ha (Cotton [20]; 0.25 kg/ha) of the same compound?
Answer: 95%

Question: And the pest or weed control at 250 g/ha (Field Bindweed [21]; 0.25 kg/ha)?
Answer: 100%

Question: And the plant injury at 250 g/ha (Cotton [22]; 0.25 kg/ha)?
Answer: 100%

Question: With `CS(=O)(=O)Nc1cc(-n2nnn(CCCF)c2=O)c(Cl)cc1F` [Compound 38, 1-[2-Chloro-4-fluoro-5-(N--methylsulfonylamino)phenyl]-4,5-dihydro-4-(3-fluoropropyl)-5H--tetrazol-5-one] as the compound, how does the pest or weed control at 1000 g/ha (Field Bindweed [1]) read?
Answer: 100%

Question: And the plant injury at 1000 g/ha (Rice [2])?
Answer: 40%

Question: What about the pest or weed control at 1000 g/ha (Velvetleaf [3]) of the same compound?
Answer: 100%

Question: What about the plant injury at 1000 g/ha (Rice [4]) of the same compound?
Answer: 20%

Question: What about the plant injury at 1000 g/ha (Wheat [5]) of the same compound?
Answer: 50%

Question: What about the pest or weed control at 1000 g/ha (Morningglory [6]) of the same compound?
Answer: 100%

Question: What about the pest or weed control at 1000 g/ha (Green Foxtail [7]) of the same compound?
Answer: 80%

Question: And the pest or weed control at 1000 g/ha (Green Foxtail [8])?
Answer: 80%

Question: And the plant injury at 1000 g/ha (Wheat [9])?
Answer: 10%

Question: What about the plant injury at 1000 g/ha (Soybean [10]) of the same compound?
Answer: 50%

Question: What about the plant injury at 1000 g/ha (Field Corn [11]) of the same compound?
Answer: 50%

Question: What about the plant injury at 1000 g/ha (Soybean [12]) of the same compound?
Answer: 90%

Question: And the pest or weed control at 1000 g/ha (Velvetleaf [13])?
Answer: 100%

Question: What about the pest or weed control at 1000 g/ha (Johnsongrass [14]) of the same compound?
Answer: 40%

Question: And the pest or weed control at 1000 g/ha (Johnsongrass [15])?
Answer: 80%

Question: What about the pest or weed control at 1000 g/ha (Barnyardgrass [16]) of the same compound?
Answer: 50%

Question: What about the plant injury at 1000 g/ha (Field Corn [17]) of the same compound?
Answer: 10%

Question: What about the pest or weed control at 1000 g/ha (Barnyardgrass [18]) of the same compound?
Answer: 80%

Question: What about the pest or weed control at 1000 g/ha (Morningglory [19]) of the same compound?
Answer: 100%

Question: And the plant injury at 1000 g/ha (Cotton [20])?
Answer: 70%

Question: What about the pest or weed control at 1000 g/ha (Field Bindweed [21]) of the same compound?
Answer: 95%

Question: What about the plant injury at 1000 g/ha (Cotton [22]) of the same compound?
Answer: 95%

Question: For `CCS(=O)(=O)Nc1cc(-n2nnn(CCCF)c2=O)c(Cl)cc1F` [Compound 39, 1-[2-Chloro-4-fluoro-5-(N--ethylsulfonylamino)phenyl]-4,5-dihydro-4-(3-fluoropropyl)-5H--tetrazol-5-one], which pest or weed control at 1000 g/ha (Field Bindweed [1]) is on record?
Answer: 100%

Question: And the plant injury at 1000 g/ha (Rice [2])?
Answer: 10%

Question: And the pest or weed control at 1000 g/ha (Velvetleaf [3])?
Answer: 100%

Question: And the plant injury at 1000 g/ha (Rice [4])?
Answer: 20%

Question: And the plant injury at 1000 g/ha (Wheat [5])?
Answer: 30%

Question: And the pest or weed control at 1000 g/ha (Morningglory [6])?
Answer: 100%

Question: What about the pest or weed control at 1000 g/ha (Green Foxtail [7]) of the same compound?
Answer: 50%

Question: What about the pest or weed control at 1000 g/ha (Green Foxtail [8]) of the same compound?
Answer: 50%

Question: And the plant injury at 1000 g/ha (Wheat [9])?
Answer: 20%

Question: And the plant injury at 1000 g/ha (Soybean [10])?
Answer: 10%

Question: And the plant injury at 1000 g/ha (Field Corn [11])?
Answer: 50%

Question: What about the plant injury at 1000 g/ha (Soybean [12]) of the same compound?
Answer: 95%

Question: And the pest or weed control at 1000 g/ha (Velvetleaf [13])?
Answer: 100%

Question: What about the pest or weed control at 1000 g/ha (Johnsongrass [14]) of the same compound?
Answer: 10%

Question: And the pest or weed control at 1000 g/ha (Johnsongrass [15])?
Answer: 50%

Question: And the pest or weed control at 1000 g/ha (Barnyardgrass [16])?
Answer: 50%

Question: What about the plant injury at 1000 g/ha (Field Corn [17]) of the same compound?
Answer: 70%

Question: And the pest or weed control at 1000 g/ha (Barnyardgrass [18])?
Answer: 60%

Question: And the pest or weed control at 1000 g/ha (Morningglory [19])?
Answer: 100%

Question: And the plant injury at 1000 g/ha (Cotton [20])?
Answer: 50%

Question: And the pest or weed control at 1000 g/ha (Field Bindweed [21])?
Answer: 70%

Question: What about the plant injury at 1000 g/ha (Cotton [22]) of the same compound?
Answer: 100%
